Data set [1] addresses T1, Amine oxidase [flavin-containing] A (Homo sapiens, UniProt P21397).
T1 sequence (P21397 whole entry): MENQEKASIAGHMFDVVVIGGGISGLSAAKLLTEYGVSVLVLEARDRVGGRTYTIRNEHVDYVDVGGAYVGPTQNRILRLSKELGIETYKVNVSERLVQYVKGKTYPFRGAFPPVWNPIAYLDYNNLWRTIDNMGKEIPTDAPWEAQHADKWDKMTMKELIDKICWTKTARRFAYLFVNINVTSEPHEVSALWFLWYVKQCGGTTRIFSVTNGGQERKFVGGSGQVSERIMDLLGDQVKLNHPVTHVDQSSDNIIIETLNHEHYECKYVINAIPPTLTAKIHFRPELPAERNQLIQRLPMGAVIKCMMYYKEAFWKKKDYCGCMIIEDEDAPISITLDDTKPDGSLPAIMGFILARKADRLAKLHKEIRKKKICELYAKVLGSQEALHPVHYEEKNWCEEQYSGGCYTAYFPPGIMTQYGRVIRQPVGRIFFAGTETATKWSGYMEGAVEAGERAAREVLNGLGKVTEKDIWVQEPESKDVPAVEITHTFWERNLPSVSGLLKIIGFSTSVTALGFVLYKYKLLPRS
The experiment in a line: Inhibition of recombinant human MAO-A expressed in Sf9 cells using […] as substrate preincubated for 15 mins followed by substrate addition and measured after 60 mins by luciferin based luminescence analysis.

Data set [2] addresses T2, Amine oxidase [flavin-containing] B (Homo sapiens, UniProt P27338).
T2 sequence (P27338 whole entry): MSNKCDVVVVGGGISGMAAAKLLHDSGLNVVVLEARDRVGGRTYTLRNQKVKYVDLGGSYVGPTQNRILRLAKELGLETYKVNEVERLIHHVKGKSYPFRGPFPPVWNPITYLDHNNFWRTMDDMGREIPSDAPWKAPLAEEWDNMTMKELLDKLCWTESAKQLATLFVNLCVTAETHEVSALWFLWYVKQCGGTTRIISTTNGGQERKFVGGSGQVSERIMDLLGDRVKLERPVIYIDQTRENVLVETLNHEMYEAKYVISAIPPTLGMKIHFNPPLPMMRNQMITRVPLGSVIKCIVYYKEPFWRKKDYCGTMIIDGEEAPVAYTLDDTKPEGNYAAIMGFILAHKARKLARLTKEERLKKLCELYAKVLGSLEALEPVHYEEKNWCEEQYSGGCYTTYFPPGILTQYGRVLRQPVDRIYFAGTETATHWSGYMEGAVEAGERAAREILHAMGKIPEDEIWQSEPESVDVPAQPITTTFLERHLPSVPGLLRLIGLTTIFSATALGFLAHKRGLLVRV
The data set is described as follows: Inhibition of recombinant human MAO-B expressed in Sf9 cells using p-tyramine as substrate preincubated for 15 mins followed by substrate addition and measured after 60 mins by luciferin based luminescence analysis.

The nature of data set [3]: Cmax in fasted Sprague-Dawley rat at 1 mg/kg, iv measured for 24 hrs. The format is ADME, organism-based. Details: dose 1 mg/kg, time 24 hrs, route iv. The conditions noted are these: in vivo.
The nature of data set [4]: AUC (0 to t) in fasted Sprague-Dawley rat at 1 mg/kg, iv measured for 24 hrs. The format is ADME, organism-based. On the set-up: dose 1 mg/kg, time 24 hrs, route iv. The conditions noted are these: in vivo.
Data set [5] is described as follows: Elimination half life in fasted Sprague-Dawley rat at 1 mg/kg, iv measured for 24 hrs. The format is ADME, organism-based. The conditions noted are these: in vivo, read-out: beta t1/2 (converted).
Data set [6] can be described thus: Volume of distribution at steady state in fasted Sprague-Dawley rat at 1 mg/kg, iv measured for 24 hrs. The format is ADME, organism-based. The conditions noted are these: in vivo, read-out: Vdss.
Data set [7] can be described thus: Clearance in fasted Sprague-Dawley rat at 1 mg/kg, iv measured for 24 hrs. The format is ADME, organism-based. The conditions noted are these: in vivo.
Data set [8] is described as follows: Cmax in fasted Sprague-Dawley rat at 5 mg/kg, IG measured for 24 hrs. The format is ADME, organism-based. Details: dose 5 mg/kg, time 24 hrs, route ig. The conditions noted are these: in vivo, po.
Data set [9] in a line: AUC (0 to t) in fasted Sprague-Dawley rat at 5 mg/kg, IG measured for 24 hrs. Details: dose 5 mg/kg, time 24 hrs, route ig. The format is ADME, organism-based. The conditions noted are these: in vivo, po.
Data set [10] can be described thus: Elimination half life in fasted Sprague-Dawley rat at 5 mg/kg, IG measured for 24 hrs. The format is ADME, organism-based. The conditions noted are these: in vivo, po, read-out: beta t1/2 (converted).
Data set [11] can be described thus: Bioavailability in fasted Sprague-Dawley rat at 5 mg/kg, IG measured for 24 hrs. The conditions noted are these: in vivo, po. The format is ADME, organism-based.
A short description of data set [12]: Cmax in fasted ICR mouse at 2 mg/kg, iv measured for 24 hrs. The conditions noted are these: in vivo. On the set-up: time 24 hrs, dose 2 mg/kg, route iv. The format is ADME, organism-based.
Data set [13] is described as follows: AUC (0 to t) in fasted ICR mouse at 2 mg/kg, iv measured for 24 hrs. The format is ADME, organism-based. On the set-up: dose 2 mg/kg, time 24 hrs, route iv. The conditions noted are these: in vivo.
A short description of data set [14]: Elimination half life in fasted ICR mouse at 2 mg/kg, iv measured for 24 hrs. The format is ADME, organism-based. The conditions noted are these: in vivo, read-out: beta t1/2 (converted).
Data set [15] is described as follows: Volume of distribution at steady state in fasted ICR mouse at 2 mg/kg, iv measured for 24 hrs. The format is ADME, organism-based. The conditions noted are these: in vivo, read-out: Vdss.
Data set [16] in a line: Clearance in fasted ICR mouse at 2 mg/kg, iv measured for 24 hrs. The format is ADME, organism-based. The conditions noted are these: in vivo.
Data set [17] can be described thus: Cmax in fasted ICR mouse at 5 mg/kg, IG measured for 24 hrs. The conditions noted are these: in vivo, po. Details: dose 5 mg/kg, time 24 hrs, route ig. The format is ADME, organism-based.
Data set [18] is described as follows: AUC (0 to t) in fasted ICR mouse at 5 mg/kg, IG measured for 24 hrs. The format is ADME, organism-based. On the set-up: dose 5 mg/kg, time 24 hrs, route ig. The conditions noted are these: in vivo, po.
Data set [19] can be described thus: Elimination half life in fasted ICR mouse at 5 mg/kg, IG measured for 24 hrs. The format is ADME, organism-based. The conditions noted are these: in vivo, po, read-out: beta t1/2 (converted).
Data set [20] in a line: Bioavailability in fasted ICR mouse at 5 mg/kg, IG measured for 24 hrs. The conditions noted are these: in vivo, po. The format is ADME, organism-based.

As for `COc1cccc(-c2cc3cc(CN[C@@H](C)C(N)=O)ccc3o2)c1`, the IC50 in data set [1] worked out at 5.91 µM; in data set [2], 4.55 µM.
For the compound `COc1cccc(-c2cc3cc(CN4CC[C@H]4C(N)=O)ccc3o2)c1`, the IC50 is greater than 10 µM in data set [1] and 0.103 µM in data set [2].
In the same order, the values of `COc1ccccc1-c1cc2cc(CN[C@@H](C)C(N)=O)ccc2o1` are 6.21 µM and 9.49 µM.
Regarding `COc1ccc(-c2cc3cc(CN4CC[C@H]4C(N)=O)ccc3o2)cc1`, the IC50 in data set [1] was greater than 10 µM; in data set [2], 7.39 µM.
Take `NC(=O)[C@@H]1CCN1Cc1ccc2oc(-c3ccccc3F)cc2c1`: the IC50 in data set [1] is greater than 10 µM; in data set [2], 0.073 µM. The Cmax in data set [3] (Sprague-Dawley, read-out: Cmax) came to 360 ng/mL; in data set [8], 167 ng/mL. Further, the area under the curve AUC(0-t) at 24 h in data set [4] amounted to 155 ng·h/mL; in [9] it was 672 ng·h/mL. The half-life in data set [5] was 22.4 min; in data set [10], 69 min. Further, the Vd in data set [6] came out at 2.39 L/kg. The same compound yielded a clearance in data set [7] of 106 mL/min/kg. Besides, in data set [11], the bioavailability came out at 86.7%.
Consider `COc1ccccc1-c1cc2cc(CN3CC[C@H]3C(N)=O)ccc2o1`, for which the results for the IC50 in data set [1] and in data set [2] were greater than 10 µM and 1.93 µM, respectively.
Regarding `NC(=O)[C@@H]1CC(F)(F)CN1Cc1ccc2oc(-c3ccc(F)cc3)cc2c1`, the results for the IC50 in data set [1] and in data set [2] were greater than 10 µM and 0.833 µM, respectively.
As for `NC(=O)[C@@H]1C[C@H](F)CN1Cc1ccc(OCc2cccc(F)c2)cc1`, the Cmax is 69.1 ng/mL in data set [3] (24 h), 690 ng/mL in data set [8], 613 ng/mL in [12] and 833 ng/mL in data set [17]. Moreover, the AUC(0-t) at 24 h was determined as 561 ng·h/mL in [13] and 1080 ng·h/mL in data set [18]. Moreover, the half-life in [14] was 33 min; in [19], 46.8 min. The Vd in data set [15] stood at 2.6 L/kg. In data set [16], the clearance worked out at 63.3 mL/min/kg. Also, the bioavailability in data set [20] amounted to 77.4%.

The IC50 is the midpoint of a concentration-inhibition curve. As a reminder, the Cmax is the highest concentration seen after dosing. As a reminder, the AUC(0-t) is exposure summed from dosing to a finite time, without extrapolation to infinity. One may read the clearance as a measure of how efficiently the substance is removed, as volume per time. A high value points to efficient removal. By bioavailability is commonly meant dose-corrected exposure relative to a reference, in per cent. High values mean much systemic uptake, low ones little systemic uptake.

The values are drawn from ChEMBL document CHEMBL5346941, “Design, synthesis and evaluation of novel monoamine oxidase B (MAO-B) inhibitors with improved pharmacokinetic properties for Parkinson's disease” (Eur J Med Chem, 2023).
